# Reference: PubChem BioAssay AID328 (DTP/NCI, 2004)
# Where “and” joins values, the source holds several entries; their conditions need not be identical. Equal values may be shown once. Inconclusive results and toxic doses are left out.
# Tested on: BDF1 mice, P388 leukemia ip, median survival T/C
# Test: NCI In Vivo Anticancer Drug Screen. Data for tumor model P388 Leukemia (intraperitoneal) in B6D2F1 (BDF1) mice
# Settings: endpoint: median survival time, higher = longer survival
# In short: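 Each value expresses how treatment altered survival: treated-mouse outcome over vehicle-mouse outcome, both groups bearing the transplanted tumour.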
# [1] = dose: 25.0 mg/kg/injection, schedule: Q04DX003 (ip), vehicle: saline
# [2] = dose: 200.0 mg/kg/injection, schedule: Q01DX001 (ip), vehicle: Klucel (hydroxypropylcellulose) (HPC)
# [3] = dose: 50.0 mg/kg/injection, schedule: Q04DX003 (ip), vehicle: saline with Tween-80
# [4] = dose: 100.0 mg/kg/injection, schedule: Q04DX003 (ip), vehicle: saline with Tween-80
# [5] = dose: 200.0 mg/kg/injection, schedule: Q04DX003 (ip), vehicle: saline with Tween-80
# [6] = dose: 100.0 mg/kg/injection, schedule: Q01DX009 (ip), vehicle: saline with Tween-80
# [7] = dose: 200.0 mg/kg/injection, schedule: Q01DX009 (ip), vehicle: saline with Tween-80
# [8] = dose: 12.5 mg/kg/injection, schedule: Q01DX009 (ip), vehicle: saline with Tween-80
# [9] = dose: 25.0 mg/kg/injection, schedule: Q01DX009 (ip), vehicle: saline with Tween-80
# [10] = dose: 50.0 mg/kg/injection, schedule: Q01DX009 (ip), vehicle: saline with Tween-80
# [11] = dose: 50.0 mg/kg/injection, schedule: Q04DX003 (ip), vehicle: Klucel (hydroxypropylcellulose) (HPC)
# [12] = dose: 400.0 mg/kg/injection, schedule: Q04DX003 (ip), vehicle: saline with Tween-80
# [13] = dose: 100.0 mg/kg/injection, schedule: Q01DX001 (ip), vehicle: Klucel (hydroxypropylcellulose) (HPC)
# [14] = dose: 100.0 mg/kg/injection, schedule: Q04DX003 (ip), vehicle: Klucel (hydroxypropylcellulose) (HPC)
# [15] = dose: 200.0 mg/kg/injection, schedule: Q04DX003 (ip), vehicle: Klucel (hydroxypropylcellulose) (HPC)
# [16] = dose: 400.0 mg/kg/injection, schedule: Q01DX001 (ip), vehicle: Klucel (hydroxypropylcellulose) (HPC)
# [17] = dose: 400.0 mg/kg/injection, schedule: Q04DX003 (ip), vehicle: Klucel (hydroxypropylcellulose) (HPC)
smiles,measurement,setting,value
O=C(c1cc(C(F)(F)F)cc(C(F)(F)F)c1)N1CC1,T/C,"dose: 3.12 mg/kg/injection, schedule: Q01DX009 (ip), vehicle: water",100 % of control
same,T/C,"dose: 6.25 mg/kg/injection, schedule: Q01DX009 (ip), vehicle: water",105 % of control
same,T/C,"dose: 12.5 mg/kg/injection, schedule: Q01DX009 (ip), vehicle: water",114 % of control
same,T/C,"dose: 25.0 mg/kg/injection, schedule: Q01DX009 (ip), vehicle: water",100 % of control
same,T/C,"dose: 50.0 mg/kg/injection, schedule: Q01DX009 (ip), vehicle: water",110 % of control
NP(=O)(N1CC1)N1CC1,T/C,"dose: 6.25 mg/kg/injection, schedule: Q04DX003 (ip), vehicle: saline",100 % of control
same,T/C,[1],230 % of control
O.O.O=C(CC(=O)C(F)(F)F)C(F)(F)F.O=C(CC(=O)C(F)(F)F)C(F)(F)F.[Ni],T/C,[2],104 % of control
S=c1nc(-c2ccccc2)c(-c2ccccc2)n[nH]1,T/C,"dose: 20.0 mg/kg/injection, schedule: Q01DX001 (ip), vehicle: other",95 % of control
same,T/C,"dose: 40.0 mg/kg/injection, schedule: Q01DX001 (ip), vehicle: other",86 % of control
same,T/C,"dose: 40.0 mg/kg/injection, schedule: Q04DX003 (ip), vehicle: saline with Tween-80",104 % of control
same,T/C,"dose: 75.0 mg/kg/injection, schedule: Q01DX001 (ip), vehicle: other",122 % of control
same,T/C,"dose: 75.0 mg/kg/injection, schedule: Q04DX003 (ip), vehicle: saline with Tween-80",108 % of control
same,T/C,"dose: 150.0 mg/kg/injection, schedule: Q01DX001 (ip), vehicle: other",90 % of control
same,T/C,"dose: 150.0 mg/kg/injection, schedule: Q04DX003 (ip), vehicle: saline with Tween-80",116 % of control
COc1cc(C(=O)C=C(C(F)(F)F)C(F)(F)F)cc(OC)c1OC,T/C,[3],120 % of control
same,T/C,[4],120 % of control
same,T/C,[5],100 % of control
Cc1ccc(NCCNCC(C)(C)O)c2c(=O)c3ccccc3sc12,T/C,"dose: 12.5 mg/kg/injection, schedule: Q04DX003 (ip), vehicle: saline",100 % of control
same,T/C,[1],120 % of control
same,T/C,"dose: 50.0 mg/kg/injection, schedule: Q04DX003 (ip), vehicle: saline",120 % of control
same,T/C,"dose: 75.0 mg/kg/injection, schedule: Q04DX003 (ip), vehicle: saline",100 % of control and 115 % of control and 118 % of control
same,T/C,"dose: 115.0 mg/kg/injection, schedule: Q04DX003 (ip), vehicle: saline",115 % of control and 120 % of control
same,T/C,"dose: 170.0 mg/kg/injection, schedule: Q04DX003 (ip), vehicle: saline",115 % of control and 122 % of control
CC(=O)/C=C/c1ccccc1,T/C,[6],91 % of control and 109 % of control
same,T/C,[7],108 % of control and 118 % of control
same,T/C,"dose: 400.0 mg/kg/injection, schedule: Q01DX009 (ip), vehicle: saline with Tween-80",117 % of control
CC(=O)OC(C)(C(=O)/C=C/C(C)(C)O)C1C(O)CC2(C)C3CC=C4C(C=C(O)C(=O)C4(C)C)C3(C)C(=O)CC12C (stereo not drawn),T/C,"dose: 0.25 mg/kg/injection, schedule: Q01DX010 (ip), vehicle: carboxymethylcellulose (CMC)",100 % of control
same,T/C,"dose: 0.5 mg/kg/injection, schedule: Q01DX010 (ip), vehicle: carboxymethylcellulose (CMC)",96 % of control
same,T/C,"dose: 1.0 mg/kg/injection, schedule: Q01DX010 (ip), vehicle: carboxymethylcellulose (CMC)",98 % of control
same,T/C,"dose: 2.0 mg/kg/injection, schedule: Q01DX010 (ip), vehicle: carboxymethylcellulose (CMC)",117 % of control
same,T/C,"dose: 4.0 mg/kg/injection, schedule: Q01DX010 (ip), vehicle: carboxymethylcellulose (CMC)",105 % of control
COCCNCCN1CCN(CCCN2c3ccccc3Sc3ccc(C(F)(F)F)cc32)CC1,T/C,"dose: 20.0 mg/kg/injection, schedule: Q04DX003 (ip), vehicle: saline",105 % of control and 106 % of control
same,T/C,"dose: 40.0 mg/kg/injection, schedule: Q04DX003 (ip), vehicle: saline",108 % of control and 113 % of control
same,T/C,"dose: 80.0 mg/kg/injection, schedule: Q04DX003 (ip), vehicle: saline",120 % of control
CCCC(C(=O)OCCN1CCCC12CCCCC2)C1CCCC1 (stereo not drawn),T/C,[8],107 % of control
same,T/C,[9],108 % of control
same,T/C,[10],119 % of control
Cc1ccc(NC(=O)CO)cc1,T/C,"dose: 50.0 mg/kg/injection, schedule: Q01DX009 (ip), vehicle: Klucel (hydroxypropylcellulose) (HPC)",102 % of control
same,T/C,"dose: 100.0 mg/kg/injection, schedule: Q01DX009 (ip), vehicle: Klucel (hydroxypropylcellulose) (HPC)",97 % of control
same,T/C,"dose: 200.0 mg/kg/injection, schedule: Q01DX009 (ip), vehicle: Klucel (hydroxypropylcellulose) (HPC)",104 % of control
O=C(CBr)c1cccc(OC(=O)c2ccccc2)c1,T/C,"dose: 25.0 mg/kg/injection, schedule: Q04DX003 (ip), vehicle: Klucel (hydroxypropylcellulose) (HPC)",96 % of control
same,T/C,[11],88 % of control
Nc1ccc(S(=O)(=O)Nc2ccc([N+](=O)[O-])cc2)cc1,T/C,[8],87 % of control
same,T/C,[9],96 % of control and 105 % of control
same,T/C,"dose: 25.0 mg/kg/injection, schedule: Q04DX003 (ip), vehicle: saline with Tween-80",102 % of control
same,T/C,[10],89 % of control
same,T/C,[3],99 % of control
same,T/C,[6],87 % of control and 93 % of control
same,T/C,[4],105 % of control
same,T/C,[5],112 % of control
same,T/C,[12],114 % of control
C#CC(C)(C)NC(=O)NC12CC3CC(CC(C3)C1)C2,T/C,"dose: 200.0 mg/kg/injection, schedule: Q01DX001 (ip), vehicle: saline with Tween-80",88 % of control
same,T/C,"dose: 400.0 mg/kg/injection, schedule: Q01DX001 (ip), vehicle: saline with Tween-80",95 % of control
NC(=O)NN=C1CCCCC1,T/C,"dose: 17.5 mg/kg/injection, schedule: Q01DX009 (ip), vehicle: Klucel (hydroxypropylcellulose) (HPC)",90 % of control
same,T/C,"dose: 26.25 mg/kg/injection, schedule: Q04DX003 (ip), vehicle: Klucel (hydroxypropylcellulose) (HPC)",100 % of control
same,T/C,"dose: 35.0 mg/kg/injection, schedule: Q01DX009 (ip), vehicle: Klucel (hydroxypropylcellulose) (HPC)",122 % of control
same,T/C,"dose: 52.5 mg/kg/injection, schedule: Q04DX003 (ip), vehicle: Klucel (hydroxypropylcellulose) (HPC)",100 % of control
CCN1C(=O)c2ccccc2C1=O,T/C,[11],104 % of control
same,T/C,[13],104 % of control
same,T/C,[14],118 % of control
same,T/C,[2],108 % of control
same,T/C,[15],100 % of control
same,T/C,[16],104 % of control
CN(C)c1ccc(/C=C\c2cc(=O)[nH]c3ccccc23)cc1,T/C,[14],87 % of control
same,T/C,[15],91 % of control
same,T/C,[17],87 % of control
CC1=CC(=NC(=O)CBr)C=C/C1=N\S(=O)(=O)c1ccccc1,T/C,"dose: 6.25 mg/kg/injection, schedule: Q01DX009 (ip), vehicle: saline with Tween-80",113 % of control
same,T/C,[8],111 % of control
same,T/C,[9],106 % of control
COc1c(Br)cc(Br)cc1Br,T/C,[14],108 % of control
same,T/C,[15],100 % of control
same,T/C,[17],100 % of control
CC1CCCCC12OCCO2 (stereo not drawn),T/C,[10],100 % of control
same,T/C,[6],113 % of control
same,T/C,[4],100 % of control
same,T/C,[7],104 % of control
same,T/C,[5],109 % of control
same,T/C,[12],100 % of control
[O-]c1on[n+](C2CCCCC2)c1-c1ccccc1,T/C,[11],105 % of control
same,T/C,[13],109 % of control
same,T/C,[6],92 % of control
same,T/C,[14],100 % of control
same,T/C,[2],104 % of control
same,T/C,[7],92 % of control
same,T/C,[15],100 % of control
same,T/C,[16],100 % of control
C1CC[N-]CC1.C1CC[N-]CC1.CS(C)=O.[Cl][Rh]([Cl])[Cl],T/C,"dose: 8.3 mg/kg/injection, schedule: Q01DX009 (ip), vehicle: saline",150 % of control
same,T/C,"dose: 12.5 mg/kg/injection, schedule: Q01DX009 (ip), vehicle: saline",150 % of control and 155 % of control
same,T/C,"dose: 18.7 mg/kg/injection, schedule: Q01DX009 (ip), vehicle: saline",150 % of control
CC(C)=CCC/C(C)=C/CNc1ncnc2nc[nH]c12,T/C,[4],100 % of control
same,T/C,[5],90 % of control
same,T/C,[12],109 % of control and 111 % of control
